Measurements taken from paper PMC10233622, “Structural and functional investigation of a fungal member of carbohydrate esterase family 15 with potential specificity for rare xylans” (Acta Crystallographica. Section D, Structural Biology, 2023).

Biological target: T1, LfCE15C (Lentithecium fluviatile, UniProt A0A6G1IIU9)
T1 construct: gene K458DRAFT_349146; native signal peptide removed; secreted from Pichia pastoris SMD1168H; N-glycosylated at Asn241
Test: nanoDSF thermal shift (Tycho NT.[…] nm)
Settings: 20 mM ligand; 0.1 M sodium phosphate pH 6.5; indirect indication of binding

T1 sequence (A0A6G1IIU9 entry or part of it): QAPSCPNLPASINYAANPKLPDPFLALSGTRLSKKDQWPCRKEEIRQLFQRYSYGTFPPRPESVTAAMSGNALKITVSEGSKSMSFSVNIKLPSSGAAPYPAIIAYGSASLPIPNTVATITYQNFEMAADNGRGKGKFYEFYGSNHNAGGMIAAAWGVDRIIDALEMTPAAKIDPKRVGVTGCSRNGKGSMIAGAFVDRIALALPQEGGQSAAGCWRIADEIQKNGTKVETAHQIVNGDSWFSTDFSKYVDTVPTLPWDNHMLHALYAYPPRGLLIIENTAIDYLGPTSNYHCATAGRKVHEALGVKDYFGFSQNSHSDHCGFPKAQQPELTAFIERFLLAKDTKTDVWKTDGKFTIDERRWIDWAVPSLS

SMILES: O=C(OCc1ccccc1)[C@H]1OC(O)[C@H](O)[C@@H](O)[C@@H]1O (stereo partly shown) [BnzGlcA, benzyl glucuronate]
- Ti shift: A decrease in T i was observed with BnzGlcA
